Assays:
CCR-3 receptor = biological target: T1, CCR-3 receptor (Homo sapiens, UniProt P51677); experiment: CCR-3 Receptor Binding Assay, inhibition of 125I eotaxin binding to CCR-3 L1.2 transfectant cells; conditions: concentration required to reduce 125I-eotaxin binding to the CCR-3 L1.2 transfected cells by 50%
T1 construct: expressed in transfected cells; host or cells: L1.2 cells (murine pre-B lymphoma line)
T1 sequence (P51677 1-355): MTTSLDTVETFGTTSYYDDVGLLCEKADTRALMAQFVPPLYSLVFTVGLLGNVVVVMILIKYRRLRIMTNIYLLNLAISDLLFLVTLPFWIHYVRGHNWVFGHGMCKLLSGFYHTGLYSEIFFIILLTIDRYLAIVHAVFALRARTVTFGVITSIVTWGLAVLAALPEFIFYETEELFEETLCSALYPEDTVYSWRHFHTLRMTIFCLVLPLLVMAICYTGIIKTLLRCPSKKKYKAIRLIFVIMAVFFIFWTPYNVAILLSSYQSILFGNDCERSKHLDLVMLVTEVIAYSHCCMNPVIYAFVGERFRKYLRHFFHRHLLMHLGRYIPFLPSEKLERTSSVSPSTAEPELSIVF
Procedure: The CCR-3 antagonistic activity of the compounds of the invention was determined by their ability to inhibit the binding of ^125I eotaxin to CCR-3 L1.2 transfectant cells ((see Ponath, P. D. et al., J. Exp. Med., Vol. 183, 2437-2448, (1996)).
The assay was performed in Costar 96-well polypropylene round bottom plates. Test compounds were dissolved in DMSO and then diluted with binding buffer (50 mM HEPES, 1 mM CaCl2, 5 mM MgCl2, 0.5% bovine serum albumin (BSA), 0.02% sodium azide, pH 7.24) such that the final DMSO concentration was 2%. 25 μl of the test solution or only buffer with DMSO (control samples) was added to each well, followed by the addition of 25 μl of ^125I-eotaxin ([…]) (NEX314, New England Nuclear, Boston, Mass.) and 1.5×10^5 of the CCR-3 L1.2 transfected cells in 25 μl binding buffer. The final reaction volume was 75 μl.
After incubating the reaction mixture for 1 h at room temperature, the reaction was terminated by filtering the reaction mixture through polyethylenimine treated Packard Unifilter GF/C filter plate (Packard, Chicago, Ill.). The filters were washed four times with ice cold wash buffer containing 10 mm HEPES and 0.5M sodium chloride (pH 7.2) and dried at 65° C. for approximately 10 min. 25 μl/well of Microscint-20™ scintillation fluid (Packard) was added and the radioactivity retained on the filters was determined by using the Packard TopCount™.
The IC50 value (concentration of test compound required to reduce ^125I-eotaxin binding to the CCR-3 L1.2 transfected cells by 50%) for some of the compounds of the invention was: […]

[1] = test system: CCR-3 L1.2 transfectant cells; experiment: Inhibition of eotaxin mediated chemotaxis of CCR-3 L1.2 transfectant cells; format: cell-based; conditions: concentration required to reduce eotaxin mediated chemotaxis of CCR-3 L1.2 transfected cells by 50%
Procedure: The CCR-3 antagonistic activity of the compounds of this invention was determined by measuring the inhibition of eotaxin mediated chemotaxis of the CCR-3 L1.2 transfectant cells, using a slight modification of the method described in Ponath, P. D. et al., J. Clin. Invest. 97: 604-612 (1996). The assay was performed in a 24-well chemotaxis plate (Costar Corp., Cambridge Mass.) CCR-3 L1.2 transfectant cells were grown in culture medium containing RPMI 1640, 10% Hyclone™ fetal calf serum, […] 2-mercaptoethanol and Geneticin 418 (0.8 mg/ml). 18-24 hours before the assay, the transfected cells were treated with n-butyric acid at a final concentration of 5 mM/1×10^6 cells/ml, isolated and resuspended at 1×10^7 cells/ml in assay medium containing equal parts of RPMI 1640 and Medium 199 (M 199) with 0.5% bovine serum albumin.
Human eotaxin suspended in phosphate buffered saline at 1 mg/ml was added to bottom chamber in a final concentration of 100 nm. Transwell culture inserts (Costar Corp., Cambridge Mass.) having 3 micron pore size were inserted into each well and L1.2 cells (1×10^6) were added to the top chamber in a final volume of 100 μl. Test compounds in DMSO were added both to the top and bottom chambers such that the final DMSO volume was 0.5%. The assay was performed against two sets of controls. The positive control contained cells with no test compound in the top chamber and only eotaxin in the lower chamber. The negative control contained cells with no test compound in the top chamber and neither eotaxin nor test compound in lower chamber. The plate was incubated at 37° C. After 4 h, the inserts were removed from the chambers and the cells that had migrated to the bottom chamber were counted by pipetting out 500 μl of the cell suspension from the lower chamber to 1.2 ml Cluster tubes (Costar) and counting them on a FACS for 30 sec.
The IC50 value (concentration of test compound required to reduce eotaxin mediated chemotaxis of CCR-3 L1.2 transfected cells by 50%) for some of the compounds of the invention was: […]

IC50 (CCR-3 receptor) [nM] | IC50 [1] [nM] | melting point [°C] | Structure (SMILES)
950 | 210 |  | COc1cc(N)c(Cl)cc1C(=O)NCC1CCN(CC(NC(=O)c2ccc(C)cc2)C(C)C)CC1 (racemic) [compound 59, N-{1-(RS)-[4-(4-Amino-5-chloro-2-methoxyphenylcarbonylaminomethyl)piperidin-1-yl-methyl]-2-methylpropyl}-4-methylbenzamide]
690 | 460 |  | COc1cccc(NC(=O)NC2CCCCC2N2CCN(Cc3ccc(Cl)c(Cl)c3)CC2)c1 (racemic) [compound 84, 1-{2(RS)-[4-(3,4-Dichlorobenzyl)piperazin-1-yl]cyclohexyl}-3-(3-methoxyphenyl)urea]
 | 240 |  | Cc1ccc(C(=O)N[C@H](CN2CCC(Cc3ccc(Cl)c(Cl)c3)CC2)C(C)C)cc1 [compound 57, N-{1-(S)-[4-(3,4-Dichlorobenzyl)piperidin-1-ylmethyl]-2-methylpropyl}-4-methylbenzamide]
3370 | 60 | 271.1 to 275.5 | Cc1cc(C)c(NC(=O)N[C@@H](CN2CCN(Cc3ccc(Cl)c(Cl)c3)CC2)C(C)C)c(C)c1 [compound 93]
